For assay [1], the target named is T1, rat Nluc-A2BR (Rattus norvegicus, UniProt P29276, M1L).
T1 construct: gene Adora2b; internal XhoI site removed (silent by primer); transient in intact HEK293T cells
T1 sequence (P29276 1-332 M1L): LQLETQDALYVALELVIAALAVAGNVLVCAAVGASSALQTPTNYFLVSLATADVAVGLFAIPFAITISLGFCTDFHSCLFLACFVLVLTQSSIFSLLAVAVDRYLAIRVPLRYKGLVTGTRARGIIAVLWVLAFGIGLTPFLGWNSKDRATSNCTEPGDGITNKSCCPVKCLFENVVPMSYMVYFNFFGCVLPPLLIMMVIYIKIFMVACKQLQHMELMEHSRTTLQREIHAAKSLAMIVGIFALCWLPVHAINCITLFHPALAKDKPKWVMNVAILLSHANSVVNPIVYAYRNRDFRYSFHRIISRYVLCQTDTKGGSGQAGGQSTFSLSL
In words: NanoBRET competition binding with CA200645, intact HEK293T cells. It is filed as cell-based. Particulars: for Ki: read-out: Nluc-rat A2B (pKD or pKi) (converted). The source says: NanoBRET competition binding with CA200645, intact HEK293T cells on rat Nluc-A2BR
On the technique in general: Bioluminescence resonance energy transfer reports proximity on the nanometre scale.

For assay [2], the target named is T2, rat Nluc-A2AR (Rattus norvegicus, UniProt P30543, M1L).
T2 construct: gene Adora2a; internal BamHI site removed (silent by primer); transient in intact HEK293T cells
T2 sequence (P30543 whole entry M1L): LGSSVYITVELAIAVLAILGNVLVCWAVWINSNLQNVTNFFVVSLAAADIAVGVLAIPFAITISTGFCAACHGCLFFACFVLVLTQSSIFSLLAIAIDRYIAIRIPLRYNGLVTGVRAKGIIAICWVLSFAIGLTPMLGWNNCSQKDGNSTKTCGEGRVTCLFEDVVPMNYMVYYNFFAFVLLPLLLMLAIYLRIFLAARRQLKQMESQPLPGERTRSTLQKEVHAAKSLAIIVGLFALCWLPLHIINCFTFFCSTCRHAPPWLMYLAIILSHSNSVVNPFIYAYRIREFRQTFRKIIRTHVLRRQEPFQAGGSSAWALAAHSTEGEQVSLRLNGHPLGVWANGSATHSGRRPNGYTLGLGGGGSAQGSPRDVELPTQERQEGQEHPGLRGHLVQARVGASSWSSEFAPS
The description is as above. It is filed as cell-based. The conditions noted are these: read-out: Nluc-rat A2A (pKD or pKi) (converted). The text has this:
NanoBRET competition binding with CA200645, intact HEK293T cells on rat Nluc-A2AR

Molecules are shown by their SMILES.

For the molecule `N#Cc1c(N)nc(SCC(N)=O)c(C#N)c1-c1ccc(OCC2CC2)cc1` [BAY 60‐6583, 2‐[[6‐Amino‐3,5‐dicyano‐4‐[4‐(cyclopropylmethoxy)phenyl]‐2‐pyridinyl]thio]‐acetamide], the “Nluc-rat A2B (pKD or pKi)” value in assay [1] ([…] CA200645, HBSS pH […] BSA, […] DMSO, […] °C, […] h, Cheng-Prusoff) was 6.33 ± 0.03. As for `CCCn1c(=O)[nH]c2nc(-c3ccc(S(=O)(=O)N4CCN(c5ccc(Cl)cc5)CC4)cc3)[nH]c2c1=O` [PSB 603], the Ki in assay [2] was 490 nM; in assay [1], 2 nM. For `CCCn1c(=O)[nH]c2nc(-c3ccc(S(=O)(=O)O)cc3)[nH]c2c1=O` [PSB 1115, 4‐(2,3,6,7‐Tetrahydro‐2,6‐dioxo‐1‐propyl‐1H‐purin‐8‐yl)‐benzenesulfonic acid], the Ki in assay [2] was 2880 nM; in assay [1], 537 nM. On to `Nc1nc2c(cnn2CCc2ccccc2)c2nc(-c3ccco3)nn12` [SCH 58261, 2‐(2‐Furanyl)‐7‐(2‐phenylethyl)‐7H‐pyrazolo[4,3‐e][1,2,4]triazolo[1,5‐c]pyrimidin‐5‐amine], for which the Ki in assay [1] is 708 nM.

The values are drawn from PMC9415116, “Regionally selective cardiovascular responses to adenosine A2A and A2B receptor activation” (The FASEB Journal, 2022).
